In patent US10160755B2 (Plexxikon Inc., priority 2015, dated 2018):

What was measured:
FLT3-D835Y = target: T1, FLT3-D835Y (Homo sapiens, UniProt P36888, D835Y); assay: FLT3-D835Y biochemical kinase assay (AlphaScreen)
T1 construct: purchased Invitrogen PV3967
T1 sequence (P36888 27-993 D835Y): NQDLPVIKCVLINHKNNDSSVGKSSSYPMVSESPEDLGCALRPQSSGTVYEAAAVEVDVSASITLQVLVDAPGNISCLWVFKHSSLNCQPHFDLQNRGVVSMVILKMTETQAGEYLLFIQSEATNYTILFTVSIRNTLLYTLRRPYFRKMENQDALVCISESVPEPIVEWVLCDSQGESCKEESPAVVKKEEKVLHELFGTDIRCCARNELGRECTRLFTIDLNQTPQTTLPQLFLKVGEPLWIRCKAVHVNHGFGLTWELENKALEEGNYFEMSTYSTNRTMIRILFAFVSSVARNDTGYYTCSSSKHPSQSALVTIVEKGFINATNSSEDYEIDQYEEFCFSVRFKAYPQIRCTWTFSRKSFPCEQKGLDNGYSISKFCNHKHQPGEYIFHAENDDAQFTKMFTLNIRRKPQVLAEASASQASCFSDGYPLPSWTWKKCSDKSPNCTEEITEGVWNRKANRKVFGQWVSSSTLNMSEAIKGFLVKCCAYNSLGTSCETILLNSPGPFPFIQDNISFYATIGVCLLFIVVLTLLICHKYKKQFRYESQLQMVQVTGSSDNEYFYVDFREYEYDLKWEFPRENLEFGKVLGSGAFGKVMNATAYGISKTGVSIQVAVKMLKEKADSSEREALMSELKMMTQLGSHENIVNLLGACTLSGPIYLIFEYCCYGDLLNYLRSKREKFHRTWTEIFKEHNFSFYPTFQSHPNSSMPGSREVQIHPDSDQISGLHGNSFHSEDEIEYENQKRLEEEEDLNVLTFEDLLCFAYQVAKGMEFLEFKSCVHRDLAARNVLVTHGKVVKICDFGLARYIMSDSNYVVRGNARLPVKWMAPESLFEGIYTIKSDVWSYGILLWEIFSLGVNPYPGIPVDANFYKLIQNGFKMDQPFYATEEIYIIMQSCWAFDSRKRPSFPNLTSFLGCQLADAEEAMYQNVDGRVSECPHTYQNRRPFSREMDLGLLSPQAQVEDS
Outline: (§1)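 Recombinant enzyme phosphorylated biotin-poly(Glu4-Tyr) peptide (30 nM final); ATP final 10 μM for FLT3-D835Y, 100 μM for FLT3-ITD. AlphaScreen read-out: streptavidin donor and anti-phosphotyrosine (PY20) acceptor beads, 20 and 60 min at room temperature; inhibition seen as drop in 580 nm proximity signal; IC50 determined.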

FLT3-ITD = target: T2, FLT3-ITD (Homo sapiens, UniProt P36888); assay: FLT3-ITD biochemical kinase assay (AlphaScreen)
T2 construct: FLT3-ITD; Invitrogen #PV6190
T2 sequence (P36888 1-993): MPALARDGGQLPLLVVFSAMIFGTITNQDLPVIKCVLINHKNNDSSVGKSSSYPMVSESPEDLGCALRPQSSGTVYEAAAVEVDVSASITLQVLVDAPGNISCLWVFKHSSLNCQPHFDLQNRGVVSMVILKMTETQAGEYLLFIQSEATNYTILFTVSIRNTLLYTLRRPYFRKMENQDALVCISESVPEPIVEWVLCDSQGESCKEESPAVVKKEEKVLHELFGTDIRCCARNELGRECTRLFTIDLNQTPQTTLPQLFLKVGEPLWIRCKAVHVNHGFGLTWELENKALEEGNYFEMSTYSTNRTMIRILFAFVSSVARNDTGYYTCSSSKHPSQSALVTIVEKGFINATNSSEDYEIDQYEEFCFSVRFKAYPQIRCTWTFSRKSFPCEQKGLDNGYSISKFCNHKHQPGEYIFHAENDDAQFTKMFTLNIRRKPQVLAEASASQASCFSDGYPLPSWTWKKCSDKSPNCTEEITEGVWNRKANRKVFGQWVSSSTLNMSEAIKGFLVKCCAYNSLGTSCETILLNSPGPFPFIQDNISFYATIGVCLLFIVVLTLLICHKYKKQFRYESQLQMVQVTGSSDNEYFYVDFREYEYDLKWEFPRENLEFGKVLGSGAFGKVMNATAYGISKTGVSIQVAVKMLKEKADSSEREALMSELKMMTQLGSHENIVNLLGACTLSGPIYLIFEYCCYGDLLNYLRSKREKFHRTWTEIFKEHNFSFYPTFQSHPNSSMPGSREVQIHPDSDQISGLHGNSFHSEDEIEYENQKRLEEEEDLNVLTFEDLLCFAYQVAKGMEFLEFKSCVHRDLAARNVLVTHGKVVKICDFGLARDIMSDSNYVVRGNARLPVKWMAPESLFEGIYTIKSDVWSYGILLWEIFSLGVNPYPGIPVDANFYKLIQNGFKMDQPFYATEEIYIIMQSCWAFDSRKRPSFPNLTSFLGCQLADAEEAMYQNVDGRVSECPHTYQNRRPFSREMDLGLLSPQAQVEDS
Outline: as §1

Structure (SMILES)	IC50 (FLT3-D835Y)	IC50 (FLT3-ITD)
O=S1(=O)CCCN1c1cc(-c2cnc3[nH]cc(-c4ccc5ncn(C6CCCNC6)c5c4)c3c2)ccn1 (centres unmarked) [P-311, 2-[4-[3-[3-(3-piperidyl)benzimidazol-5-yl]-1H-pyrrolo[2,3-b]pyridin-5-yl]-2-pyridyl]-1,2-thiazolidine 1,1-dioxide]	0.0001 to 1 µM	0.0001 to 1 µM
CCN1CCN(c2ccc(-c3cnc4[nH]cc(-c5ccc6ncn(C(C)(C)C)c6c5)c4n3)cn2)CC1 [P-365, 7-(3-tert-butylbenzimidazol-5-yl)-2-[6-(4-ethylpiperazin-1-yl)-3-pyridyl]-5H-pyrrolo[2,3-b]pyrazine]	0.0001 to 1 µM	0.0001 to 1 µM
CC(C)(C)n1cnc2ccc(-c3c[nH]c4ncc(-c5ccc(N6CCCCC6)nc5)nc34)cc21 [P-347, 7-(1-(tert-butyl)-1H-benzo[d]imidazol-6-yl)-2-(6-(piperidin-1-yl)pyridin-3-yl)-5H-pyrrolo[2,3-b]pyrazine]	0.0001 to 1 µM	0.0001 to 1 µM
CC(C)(C)n1cnc2ccc(-c3c[nH]c4ncc(-c5ccc(N6CCCS6(=O)=O)cc5)cc34)cc21 [P-320, 2-[4-[3-(3-tert-butylbenzimidazol-5-yl)-1H-pyrrolo[2,3-b]pyridin-5-yl]phenyl]-1,2-thiazolidine 1,1-dioxide]	0.0001 to 1 µM	0.0001 to 1 µM
COc1cc(-c2cnc3[nH]cc(-c4ccc5ncn(C6(C(F)(F)F)CC6)c5c4)c3n2)ccn1 [P-312, 2-(2-methoxy-4-pyridyl)-7-[3-[1-(trifluoromethyl)cyclopropyl]benzimidazol-5-yl]-5H-pyrrolo[2,3-b]pyrazine]	0.0001 to 1 µM	0.0001 to 1 µM
c1cc(N2CCOCC2)ncc1-c1cnc2[nH]cc(-c3ccc4ncn(C5CCCNC5)c4c3)c2n1 (centres unmarked) [P-325, 4-[5-[7-[3-(3-piperidyl)benzimidazol-5-yl]-5H-pyrrolo[2,3-b]pyrazin-2-yl]-2-pyridyl]morpholine]	0.0001 to 1 µM	0.0001 to 1 µM
Cc1ccc(-c2cnc3[nH]cc(-c4ccc5ncn(C(C)(C)C)c5c4)c3n2)cn1 [P-388, 7-(3-tert-butylbenzimidazol-5-yl)-2-(6-methyl-3-pyridyl)-5H-pyrrolo[2,3-b]pyrazine]	0.0001 to 1 µM	0.0001 to 1 µM
c1nc(N2CCOCC2)ncc1-c1cnc2[nH]cc(-c3ccc4ncn(C5CCCNC5)c4c3)c2c1 (centres unmarked) [P-277, 4-[5-[3-[3-(3-piperidyl)benzimidazol-5-yl]-1H-pyrrolo[2,3-b]pyridin-5-yl]pyrimidin-2-yl]morpholine]	0.0001 to 1 µM	0.0001 to 1 µM
CN1CCN(c2cccc(-c3cnc4[nH]cc(-c5ccc6ncn(C(C)(C)C)c6c5)c4n3)c2)CC1 [P-331, 7-(3-tert-butylbenzimidazol-5-yl)-2-[3-(4-methylpiperazin-1-yl)phenyl]-5H-pyrrolo[2,3-b]pyrazine]	0.0001 to 1 µM	0.0001 to 1 µM
CC(C)(C)n1cnc2ccc(-c3c[nH]c4ncc(-c5ccc(N6CCOCC6)nc5)cc34)cc21 [P-322, 4-[5-[3-(3-tert-butylbenzimidazol-5-yl)-1H-pyrrolo[2,3-b]pyridin-5-yl]-2-pyridyl]morpholine]	0.0001 to 1 µM	0.0001 to 1 µM
Cc1cc(C#Cc2cnc3[nH]cc(-c4ccc5ncn(C(C)(C)C)c5c4)c3n2)cc(C)n1 [P-282, 7-(3-tert-butylbenzimidazol-5-yl)-2-[2-(2,6-dimethyl-4-pyridyl)ethynyl]-5H-pyrrolo[2,3-b]pyrazine]	0.0001 to 1 µM	0.0001 to 1 µM
CC(C)(C)n1cnc2ccc(-c3c[nH]c4ncc(-c5cccc(N6CCOCC6)c5)cc34)cc21 [P-316, 4-[3-[3-(3-tert-butylbenzimidazol-5-yl)-1H-pyrrolo[2,3-b]pyridin-5-yl]phenyl]morpholine]	0.0001 to 1 µM	0.0001 to 1 µM

Other lines, results leading:

IC50 (FLT3-D835Y)	IC50 (FLT3-ITD)	Structure (SMILES)
0.0001 to 1 µM	0.0001 to 1 µM	COc1cc(-c2cc3c(-c4ccc5ncn(C(C)(C)C)c5c4)c[nH]c3nn2)ccn1 [P-315, 5-(3-tert-butylbenzimidazol-5-yl)-3-(2-methoxy-4-pyridyl)-7H-pyrrolo[2,3-c]pyridazine]
0.0001 to 1 µM	0.0001 to 1 µM	COc1cc(C#Cc2cnc3[nH]cc(-c4ccc5ncn(C(C)(C)C)c5c4)c3n2)ccn1 [P-279, 7-(1-(tert-butyl)-1H-benzo[d]imidazol-6-yl)-2-((2-methoxypyridin-4-yl)ethynyl)-5H-pyrrolo[2,3-b]pyrazine]
0.0001 to 1 µM	0.0001 to 1 µM	CC(C)(C)n1cnc2ccc(-c3c[nH]c4ncc(-c5cnc(C#N)nc5)nc34)cc21 [P-352, 5-[7-(3-tert-butylbenzimidazol-5-yl)-5H-pyrrolo[2,3-b]pyrazin-2-yl]pyrimidine-2-carbonitrile]
0.0001 to 1 µM	0.0001 to 1 µM	CC(C)(C)n1cnc2ccc(-c3c[nH]c4ncc(-c5cccc(N6CCCS6(=O)=O)c5)cc34)cc21 [P-278, 2-[3-[3-(3-tert-butylbenzimidazol-5-yl)-1H-pyrrolo[2,3-b]pyridin-5-yl]phenyl]-1,2-thiazolidine 1,1-dioxide]
0.0001 to 1 µM	0.0001 to 1 µM	CC(C)(C)n1cnc2ccc(-c3c[nH]c4ncc(-c5ccnc(N6CCCS6(=O)=O)c5)nc34)cc21 [P-294, 2-[4-[7-(3-tert-butylbenzimidazol-5-yl)-5H-pyrrolo[2,3-b]pyrazin-2-yl]-2-pyridyl]-1,2-thiazolidine 1,1-dioxide]
0.0001 to 1 µM	0.0001 to 1 µM	COc1ncc(-c2cnc3[nH]cc(-c4ccc5ncn(C6CCCNC6)c5c4)c3c2)cn1 (centres unmarked) [P-276, 5-(2-methoxypyrimidin-5-yl)-3-[3-(3-piperidyl)benzimidazol-5-yl]-1H-pyrrolo[2,3-b]pyridine]
0.0001 to 1 µM	0.0001 to 1 µM	CC(C)(C)n1cnc2ccc(-c3c[nH]c4ncc(-c5cnc(N6CCC(F)(F)CC6)nc5)nc34)cc21 [P-357, 7-(3-tert-butylbenzimidazol-5-yl)-2-[2-(4,4-difluoro-1-piperidyl)pyrimidin-5-yl]-5H-pyrrolo[2,3-b]pyrazine]
0.0001 to 1 µM	0.0001 to 1 µM	Cc1ncc(C#Cc2cnc3[nH]cc(-c4ccc5ncn(C(C)(C)C)c5c4)c3n2)cn1 [P-284, 7-(3-tert-butylbenzimidazol-5-yl)-2-[2-(2-methylpyrimidin-5-yl)ethynyl]-5H-pyrrolo[2,3-b]pyrazine]
0.0001 to 1 µM	0.0001 to 1 µM	COc1cc(C#Cc2cnc3[nH]cc(-c4ccc5ncn(C6CCCNC6)c5c4)c3n2)ccn1 (centres unmarked) [P-280, 2-((2-methoxypyridin-4-yl)ethynyl)-7-(1-(piperidin-3-yl)-1H-benzo[d]imidazol-6-yl)-5H-pyrrolo[2,3-b]pyrazine]
0.0001 to 1 µM	0.0001 to 1 µM	CCN1CCN(c2ccc(-c3cnc4[nH]cc(-c5ccc6ncn(C7CCCNC7)c6c5)c4n3)cc2)CC1 (centres unmarked) [P-359, 2-[4-(4-ethylpiperazin-1-yl)phenyl]-7-[3-(3-piperidyl)benzimidazol-5-yl]-5H-pyrrolo[2,3-b]pyrazine]
